Source: patent US8637043B2, “Compositions useful as ligands for the formyl peptide receptor like 1 receptor and methods of use thereof” (Chemocentryx, Inc., priority 2001, dated 2014)
Several values for one entry are separate records, joined by “and”; a condition that tells them apart may be missing. Identical values can stand only once. Ends that are not written are not given here.

Columns and labels:
OVA-specific IgG = test: Adjuvant activity, anti-OVA antibodies in Rhesus monkeys (Example 16); assay type: in vivo; conditions: effectiveness as adjuvant
Description: First, 96-well U-bottom plastic dishes were coated overnight with 1 μg ovalbumin (OVA) in 100 μl PBS per well. The next day, the dishes were rinsed with PBS, blocked with PBS containing 5% fetal bovine serum (FBS), and rinsed with PBS again. Plasma samples from experimental animals (see below) were diluted 10^2- to 10^5-fold and added to the dishes for 2 hours, after which the dishes were again rinsed with PBS. The dishes were then incubated with biotinylated goat anti-monkey IgG detection antibodies, then rinsed with PBS and incubated with streptavidin-linked horseradish peroxidase (SA-HRP). After a final rinsing with PBS, the HRP substrate 2,2′-Azinobis [3-ethylbenzothiazoline-6-sulfonic acid]-diammonium salt was added. Color development was measured with an ELISA plate reader at 405 nm, and optical density (OD) units were converted to arbitrary “antibody units,” where a unit is defined as the inverse of the plasma dilution that produces 50% of the maximum response from a standard curve obtained by serial dilution of an ascites collected from OVA-injected mice and containing OVA-specific antibodies.
Since the SHAAYtide (SEQ ID NO:6) and the chemokines mC10 and vMCK-2 recruited APCs, including dendritic cells, to the site of injection, these polypeptides were tested for their ability to act as immunization adjuvants to augment the immune response to a co-injected foreign antigen. […]

dendritic cells = test: Dendritic cell infiltration after intradermal injection in mice (anti-DEC-205 staining); assay type: in vivo; set-up: key to Dendritic cell infiltration Score / Infiltration Score: 0 = none, 1 = slight, 2 = mild, 3 = moderate, 4 = severe
From the text: The following chemokines were obtained from R&D Systems (Minneapolis, Minn.): vMCK-2, mC10, and GM-CSF. The following peptides were synthesized at Phoenix Pharmaceuticals (San Carlos, Calif.): SHAAYtide (SEQ ID NO:6), several […] MODIFIED peptides of SHAAGtide variant (SEQ ID NO:) (i.e. cyclized using the MPR-Cys linked cyclization), control peptide (SEQ ID NO:33, […]Gin Pro Gly lie Lys Arg Arg Trp Leu Met), randomly conjugated to OVA in either a 1:1 or 1:4 ratio (by MBS coupling method), and conjugated to OVA at the C-terminus (C-term, made by the addition of a cysteine), and SHAAGtide variant (SEQ ID NO:3). In three separate experiments, chemokines or peptides (2 μg or 20 μg in PBS) were injected intradermally into BALB/c or C57BI/6 mice (Jackson Laboratory; Bar Harbor, Me.). In each experiment, one mouse received an injection of PBS only as a negative control. At various times after injection, the mice were euthanized, and the area around the injection site was excised and subjected to immunohistology. Frozen sections were stained with anti-DEC-205 antibody (Bio-Whittaker Molecular Applications; Rockland, Me.) that recognizes a dendritic cell-specific molecule (Kraal et al., 1986). A relative staining number on a scale of […] was assigned to each section (0, none; 1, slight; 2, mild; 3, moderate; 4, severe).

## MLWRRKIGPQMTLSHAAY [SEQ ID NO: 6]
OVA-specific IgG
  Notes: adjuvant: effective
Dendritic cells; BALBc mice, 2 μg, 6 hours, listed as SHAAYtide (SEQ ID NO: 6)
  Dendritic cell infiltration Score: 2 and 3
Dendritic cells; BALBc mice, 2 μg, 30 hours, listed as SHAAYtide (SEQ ID NO: 6)
  Dendritic cell infiltration Score: 3 and 2
Dendritic cells; BALBc mice, 20 μg, 6 hours, listed as SHAAYtide (SEQ ID NO: 6)
  Dendritic cell infiltration Score: 2 and 3
Dendritic cells; C57B1/6 mice, 2 μg dose, 6 hours, 0 none, 1 slight, 2 mild, 3 moderate, 4 severe, one animal per line
  Dendritic cell infiltration Score: 1
Dendritic cells; C57B1/6 mice, 2 μg dose, 30 hours
  Dendritic cell infiltration Score: 0
Dendritic cells; C57B1/6 mice, 2 μg dose, 51 hours
  Dendritic cell infiltration Score: 0
Dendritic cells; summary of Tables 15, 16 and 17
  infiltration of DEC-205-labeled cells: excellent infiltration
